Reference: US11739074B2, “Ras inhibitors” (Revolution Medicines, Inc., priority 2019, dated 2023)
Read-outs that look alike come from different tables or passages of the source.

Tests used:
Assay type in all cases: cell-based
[1] = test system: NCI-H358 (K-Ras G12C); test: CellTiter-Glo cell viability assay, H358; conditions: Homo sapiens, NCI-H358, 120 h
Experimental: Determination of Cell Viability in RAS Mutant Cancer Cell Lines
Protocol: CellTiter-Glo® Cell Viability Assay
Note—The following protocol describes a procedure for monitoring cell viability of K-Ras mutant cancer cell lines in response to a compound of the invention. Other RAS isoforms may be employed, though the number of cells to be seeded will vary based on cell line used.
Test compounds (132.5 nL) were directly dispensed into the assay plates containing cells. […] On day 5, assay plates and their contents were equilibrated to room temperature for approximately 30 minutes. […] Luminescence was measured using the PerkinElmer Enspire. Data were normalized by the following: (Sample signal/Avg. DMSO)*100. The data were fit using a four-parameter logistic fit.

[2] = test system: AsPC-1 (K-Ras G12D); test: Potency assay: pERK in AsPC-1 cells; conditions: Homo sapiens
[3] = test system: AsPC-1 (K-Ras G12D); test: CellTiter-Glo cell viability assay, AsPC-1; conditions: Homo sapiens, ASPC1, 120 h
Method in brief: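 Cells already in plates received compound by direct dispensing. After incubation to day 5, plates sat at room temperature roughly 30 minutes, then ATP-based luminescence was measured and values derived from a four-parameter fit of DMSO-normalized data.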

[4] = NCI-H358, K-Ras G12C, 5-day treatment, read-out: H358 Cell Viability IC50
[5] = ASPC1, AsPC-1 cells, K-Ras G12D, read-out: pERK EC50 (AsPC-1 KRAS G12D)
[6] = AsPC-1, K-Ras G12D, 5-day treatment, read-out: AsPC-1 Cell Viability IC50
[7] = read-out: H358 Cell Viability IC50, NCI-H358, K-Ras G12C, 5-day treatment
[8] = ASPC1, read-out: pERK EC50 (AsPC-1 KRAS G12D)
[9] = read-out: AsPC-1 Cell Viability IC50, AsPC-1, K-Ras G12D, 5-day treatment

## CCn1c(-c2cccnc2[C@H](C)OC)c2c3cc(ccc31)-c1cc(O)cc(c1)C[C@H](NC(=O)[C@H](C(C)C)N(C)C(=O)[C@@H]1CCN(C(=O)[C@@H]3CN3)[C@@H]1C)C(=O)N1CCC[C@H](N1)C(=O)OCC(C)(C)C2 [Compound 208]
[1]; [4]
  IC50: 10 to 100 nM
[2]; [5]
  EC50: < 5000 nM
[3]; [6]
  IC50: 1000 to 10000 nM

## CCn1c(-c2cccnc2[C@H](C)OC)c2c3cc(ccc31)-c1csc(n1)C[C@H](NC(=O)[C@H](C(C)C)N(C)C(=O)N1CC[C@H](N(C)C(=O)[C@H]3CN3)C1)C(=O)N1CCC[C@H](N1)C(=O)OCC(C)(C)C2 [Compound 228]
[1]; [4]
  IC50: 10 to 100 nM
[2]; [5]
  EC50: < 5000 nM
[3]; [6]
  IC50: 100 to 1000 nM

## CCn1c(-c2cccnc2[C@H](C)OC)c2c3cc(ccc31)-c1cc(O)cc(c1)C[C@H](NC(=O)[C@H](C(C)C)N(C)C(=O)CN(C)C(=O)[C@@H]1CN1CCCOC)C(=O)N1CCC[C@H](N1)C(=O)OCC(C)(C)C2 (stereo partly drawn) [Compound 137]
[1]; [7]
  IC50: < 10 nM
[2]; [8]
  EC50: < 5000 nM
[3]; [9]
  IC50: 100 to 1000 nM

## CCn1c(-c2cccnc2[C@H](C)OC)c2c3cc(ccc31)-c1cc(O)cc(c1)C[C@H](NC(=O)[C@H](C(C)C)N(C)C(=O)[C@H]1CCN(C(=O)[C@H]3CN3)C1)C(=O)N1CCC[C@H](N1)C(=O)OCC(C)(C)C2 (single isomer, unassigned) [Compound 43A]
[1]; [4]
  IC50: < 10 nM
[2]; [5]
  EC50: < 5000 nM
[3]; [6]
  IC50: 100 to 1000 nM

## CCn1c(-c2cccnc2[C@H](C)OC)c2c3cc(ccc31)-c1cc(O)cc(c1)C[C@H](NC(=O)[C@H](C1CCCC1)N(C)C(=O)CN(C)C(=O)[C@H]1CN1)C(=O)N1CCC[C@H](N1)C(=O)OCC(C)(C)C2 [Example 95, (2R)—N-(2-(((1S)-1-cyclopentyl-2-(((6^3S,4S)-1^1-ethyl-2^5-hydroxy-1^2-(2-((S)-1-methoxyethyl)pyridin-3-yl)-10,10-dimethyl-5,7-dioxo-6^1,6^2,6^3,6^4,6^5,6^6-hexahydro-1^1H-8-oxa-1(5,3)-indola-6(1,3)-pyridazina-2(1,3)-benzenacycloundecaphane-4-yl)amino)-2-oxoethyl)(methyl)amino)-2-oxoethyl)-N-methylaziridine-2-carboxamide]
[1]; [7]
  IC50: < 10 nM
[2]; [8]
  EC50: < 5000 nM
[3]; [9]
  IC50: 10 to 100 nM

## CCn1c(-c2cnccc2COC)c2c3cc(ccc31)-c1cc(O)cc(c1)C[C@H](NC(=O)[C@H](C(C)C)N(C)C(=O)CN(C)C(=O)[C@H]1N[C@@H]1c1ccccc1)C(=O)N1CCC[C@H](N1)C(=O)OCC(C)(C)C2 [Compound 12]
[1]; [7]
  IC50: 100 to 1000 nM
[2]; [8]
  EC50: < 5000 nM
[3]; [9]
  IC50: 100 to 1000 nM

## CCn1c(-c2cccnc2[C@H](C)OC)c2c3cc(ccc31)-c1cccc(c1)C[C@H](NC(=O)[C@H](C(C)C)N(C)C(=O)[C@H]1C[C@H](N=C=NCc3ccccc3OC)C1)C(=O)N1CCC[C@H](N1)C(=O)OCC(C)(C)C2 [Compound 77]
[1]; [4]
  IC50: 100 to 1000 nM
[2]; [5]
  EC50: < 5000 nM
[3]; [6]
  IC50: 100 to 1000 nM

## CCn1c(-c2cccnc2[C@H](C)OC)c2c3cc(ccc31)-c1csc(n1)C[C@H](NC(=O)[C@H](C(C)C)N(C)C(=O)N1CCC[C@H](N(C)C(=O)[C@@H]3CN3)C1)C(=O)N1CCC[C@H](N1)C(=O)OCC(C)(C)C2 [Compound 292]
[1]; [4]
  IC50: 10 to 100 nM
[2]; [5]
  EC50: < 5000 nM
[3]; [6]
  IC50: 1000 to 10000 nM

## CCn1c(-c2cccnc2[C@H](C)OC)c2c3cc(ccc31)-c1cc(O)cc(c1)C[C@H](NC(=O)[C@H](C1CCCC1)N(C)C(=O)CN(C)C(=O)[C@H]1N[C@H]1C1(C#N)CC1)C(=O)N1CCC[C@H](N1)C(=O)OCC(C)(C)C2 [Compound 316]
[1]; [4]
  IC50: 10 to 100 nM
[2]; [5]
  EC50: < 5000 nM
[3]; [6]
  IC50: 1000 to 10000 nM

## CCn1c(-c2cnccc2COC)c2c3cc(ccc31)-c1cc(O)cc(c1)C[C@H](NC(=O)[C@H](C(C)C)N(C)C(=O)CN(C)C(=O)[C@@H]1N[C@@H]1C1CC1)C(=O)N1CCC[C@H](N1)C(=O)OCC(C)(C)C2 [Compound 103]
[1]; [7]
  IC50: 100 to 1000 nM
[2]; [8]
  EC50: < 5000 nM
[3]; [9]
  IC50: 100 to 1000 nM

## CCn1c(-c2cccnc2[C@H](C)OC)c2c3cc(ccc31)-c1cc(O)cc(c1)C[C@H](NC(=O)[C@H](C1CCCC1)N(C)C(=O)CN(C)C(=O)[C@H]1[C@@H](C3CC3)N1CCCOC)C(=O)N1CCC[C@H](N1)C(=O)OCC(C)(C)C2 (stereo partly drawn) [Compound 317]
[1]; [4]
  IC50: 10 to 100 nM
[2]; [5]
  EC50: < 5000 nM
[3]; [6]
  IC50: 10 to 100 nM

## CCn1c(-c2cccnc2[C@H](C)OC)c2c3cc(ccc31)-c1csc(n1)C[C@H](NC(=O)[C@H](C(C)C)N(C)C(=O)N1CC(CN(C)C(=O)[C@H]3CN3)C1)C(=O)N1CCC[C@H](N1)C(=O)OCC(C)(C)C2 [Compound 224]
[1]; [4]
  IC50: 10 to 100 nM
[2]; [5]
  EC50: < 5000 nM
[3]; [6]
  IC50: 100 to 1000 nM

## CCn1c(-c2cnccc2COC)c2c3cc(ccc31)-c1cc(O)cc(c1)C[C@H](NC(=O)[C@H](C(C)C)N(C)C(=O)CN(C)C(=O)[C@@H]1N[C@H]1c1ccccc1)C(=O)N1CCC[C@H](N1)C(=O)OCC(C)(C)C2 [Compound 11]
[1]; [7]
  IC50: 100 to 1000 nM
[2]; [8]
  EC50: < 5000 nM
[3]; [9]
  IC50: 1000 to 10000 nM

## CCn1c(-c2cccnc2[C@H](C)OC)c2c3cc(ccc31)-c1cc(O)cc(c1)C[C@H](NC(=O)[C@H](C1CCCC1)N(C)C(=O)[C@H](C)N(C)C(=O)[C@@H]1N[C@@H]1C1CC1)C(=O)N1CCC[C@H](N1)C(=O)OCC(C)(C)C2 [Compound 328]
[1]; [4]
  IC50: < 10 nM
[2]; [5]
  EC50: < 5000 nM
[3]; [6]
  IC50: 100 to 1000 nM

## CCn1c(-c2cccnc2[C@H](C)OC)c2c3cc(ccc31)-c1cc(O)cc(c1)C[C@H](NC(=O)[C@H](C(C)C)N(C)C(=O)CN(C)C(=O)[C@H]1CN1CC1(C)COC1)C(=O)N1CCC[C@H](N1)C(=O)OCC(C)(C)C2 (stereo partly drawn) [Compound 279]
[1]; [7]
  IC50: < 10 nM
[2]; [8]
  EC50: < 5000 nM
[3]; [9]
  IC50: 100 to 1000 nM

## CCn1c(-c2cccnc2[C@H](C)OC)c2c3cc(ccc31)-c1csc(n1)C[C@H](NC(=O)[C@H](C(C)C)N(C)C(=O)N1CCCN(C(=O)[C@@H]3CN3)CC1)C(=O)N1CCC[C@H](N1)C(=O)OCC(C)(C)C2 [Compound 223]
[1]; [4]
  IC50: 10 to 100 nM
[2]; [5]
  EC50: < 5000 nM
[3]; [6]
  IC50: 100 to 1000 nM

## CCn1c(-c2cccnc2[C@H](C)OC)c2c3cc(ccc31)-c1cc(O)cc(c1)C[C@H](NC(=O)[C@H](C(C)C)N(C)C(=O)CN(C)C(=O)[C@@H]1N[C@@H]1C1CC1)C(=O)N1CCC[C@H](N1)C(=O)OCC(C)(C)C2 [Example 133, (2R,3R)-3-cyclopropyl-N-(2-(((2S)-1-(((6^3S,4S)-1^1-ethyl-2^5-hydroxy-1^2-(2-((S)-1-methoxyethyl)pyridin-3-yl)-10,10-dimethyl-5,7-dioxo-6^1,6^2,6^3,6^4,6^5,6^6-hexahydro-1^1H-8-oxa-1(5,3)-indola-6(1,3)-pyridazina-2(1,3)-benzenacycloundecaphane-4-yl)amino)-3-methyl-1-oxobutan-2-yl)(methyl)amino)-2-oxoethyl)-N-methylaziridine-2-carboxamide]
[1]; [7]
  IC50: 10 to 100 nM
[2]; [8]
  EC50: < 5000 nM
[3]; [9]
  IC50: 10 to 100 nM

## CCn1c(-c2cccnc2[C@H](C)OC)c2c3cc(ccc31)-c1csc(n1)C[C@H](NC(=O)[C@H](C(C)C)N(C)C(=O)N1CCN(C(=O)[C@@H]3CN3)[C@H](C)C1)C(=O)N1CCC[C@H](N1)C(=O)OCC(C)(C)C2 [Compound 300]
[1]; [4]
  IC50: 10 to 100 nM
[2]; [5]
  EC50: < 5000 nM
[3]; [6]
  IC50: 100 to 1000 nM

## CCn1c(-c2cccnc2[C@H](C)OC)c2c3cc(ccc31)-c1cccc(c1)C[C@H](NC(=O)[C@H](C(C)C)N(C)C(=O)CN(C)C(=O)[C@H]1CN1)C(=O)N1CCC[C@H](N1)C(=O)OCC(C)(C)C2 [Compound 107]
[1]; [7]
  IC50: 100 to 1000 nM
[2]; [8]
  EC50: < 5000 nM
[3]; [9]
  IC50: 1000 to 10000 nM
